Reference: ChEMBL document CHEMBL4400520, “Benzofuran-isatin-imine hybrids tethered via different length alkyl linkers: Design, synthesis and in vitro evaluation of anti-tubercular and anti-bacterial activities as well as cytotoxicity” (Eur J Med Chem, 2019)
Converted amounts (≈) assume the structure as drawn.

How the values were obtained:
Citrobacter freundii = assay: Antibacterial activity against Citrobacter freundii; assay type: functional
[1] = test system: Staphylococcus epidermidis; assay: Antibacterial activity against methicillin-sensitive Staphylococcus epidermidis; assay type: functional
Enterobacter cloacae = assay: Antibacterial activity against Enterobacter cloacae; assay type: functional
Staphylococcus aureus [2] = assay: Antibacterial activity against methicillin-resistant Staphylococcus aureus; assay type: functional
Staphylococcus aureus [3] = assay: Antibacterial activity against methicillin-sensitive Staphylococcus aureus; assay type: functional
Klebsiella aerogenes = assay: Antibacterial activity against Enterobacter aerogenes; assay type: functional
Vero = assay: (§1) Cytotoxicity against African green monkey Vero cells assessed as reduction in cell viability after 72 hrs by MTT assay; assay type: cell-based; settings: chlorocebus sabaeus, vero, 72 h
Enterococcus faecium = assay: Antibacterial activity against Enterococcus faecium; assay type: functional
[4] = test system: Acinetobacter calcoaceticus; assay: Antibacterial activity against Acinetobacter calcoaceticus; assay type: functional
[5] = test system: Staphylococcus epidermidis; assay: Antibacterial activity against methicillin-resistant Staphylococcus epidermidis; assay type: functional
Pseudomonas aeruginosa = assay: Antibacterial activity against Pseudomonas aeruginosa ATCC 27853; assay type: functional
[6] = Selectivity index, ratio of CC50 for African green monkey Vero cells to MIC for Mycobacterium tuberculosis H37Rv; assay type: toxicity; settings: read-out: Selectivity Index
[7] = test system: Mycobacterium tuberculosis; assay: Antitubercular activity against Mycobacterium tuberculosis H37Rv; assay type: functional
Enterococcus faecalis = assay: Antibacterial activity against Enterococcus faecalis; assay type: functional
Klebsiella pneumoniae = assay: Antibacterial activity against Klebsiella pneumoniae; assay type: functional
Proteus mirabilis = assay: Antibacterial activity against Proteus mirabilis; assay type: functional
Escherichia coli = assay: Antibacterial activity against Escherichia coli; assay type: functional
[8] = as §1; assay type: cell-based; settings: chlorocebus sabaeus, Vero cells
[9] = Half life in ICR mouse at 25 mg/kg, po; assay type: ADME, organism-based; settings: in vivo
[10] = Metabolic stability in mouse assessed as half life; assay type: ADME
[11] = Tmax in ICR mouse at 25 mg/kg, po; assay type: ADME, organism-based; settings: in vivo
[12] = Cmax in ICR mouse at 25 mg/kg, po; assay type: ADME, organism-based; design: dose 25 mg/kg, route oral; settings: in vivo
[13] = AUC (0 to infinity) in ICR mouse at 25 mg/kg, po; assay type: ADME, organism-based; design: dose 25 mg/kg, time infinity, route oral; settings: in vivo

Row | Structure (SMILES) | MIC90 (Citrobacter freundii) | MIC90 [1] | MIC90 (Enterobacter cloacae) | MIC90 (Staphylococcus aureus [2]) | MIC90 (Staphylococcus aureus [3]) | MIC90 (Klebsiella aerogenes) | MIC90 (Enterococcus faecium) | MIC90 [4] | MIC90 [5] | MIC90 (Pseudomonas aeruginosa) | selectivity ratio [6] | MIC [7] | MIC90 (Enterococcus faecalis) | MIC90 (Klebsiella pneumoniae) | MIC90 (Proteus mirabilis) | MIC90 (Escherichia coli) | CC50 at 72 h [8] | further results
1 | CCOC(=O)c1c(-c2ccccc2)oc2ccc(OCCCCN3C(=O)/C(=N\OC)c4cc(F)ccc43)cc12 | 0.25 µg/mL (≈ 0.471 µM) | 0.25 µg/mL (≈ 0.471 µM) | 1 µg/mL (≈ 1.88 µM) | 2 µg/mL (≈ 3.77 µM) | 1 µg/mL (≈ 1.88 µM) | 0.125 µg/mL (≈ 0.236 µM) | 8 µg/mL (≈ 15.1 µM) | 1 µg/mL (≈ 1.88 µM) | 1 µg/mL (≈ 1.88 µM) | 0.5 µg/mL (≈ 0.942 µM) | 516 | 0.062 µg/mL (≈ 0.117 µM) | 2 µg/mL (≈ 3.77 µM) | 0.25 µg/mL (≈ 0.471 µM) | 0.25 µg/mL (≈ 0.471 µM) | 0.125 µg/mL (≈ 0.236 µM) |  | CC50 (Vero): 64 µg/mL (≈ 121 µM)
2 | CCOC(=O)c1c(-c2ccc(OC)cc2)oc2ccc(OCCCCN3C(=O)/C(=N\OC)c4cc(F)ccc43)cc12 | 0.25 µg/mL (≈ 0.446 µM) | 0.5 µg/mL (≈ 0.892 µM) | 0.5 µg/mL (≈ 0.892 µM) | 4 µg/mL (≈ 7.14 µM) | 1 µg/mL (≈ 1.78 µM) | 0.5 µg/mL (≈ 0.892 µM) | 16 µg/mL (≈ 28.5 µM) | 4 µg/mL (≈ 7.14 µM) | 2 µg/mL (≈ 3.57 µM) | 8 µg/mL (≈ 14.3 µM) | 1030 | 0.031 µg/mL (≈ 0.0553 µM) | 2 µg/mL (≈ 3.57 µM) | 2 µg/mL (≈ 3.57 µM) | 0.25 µg/mL (≈ 0.446 µM) | 0.25 µg/mL (≈ 0.446 µM) | 32 µg/mL (≈ 57.1 µM) | 
3 | CCOC(=O)c1c(-c2ccc(OC)cc2)oc2ccc(OCCCCCCN3C(=O)/C(=N\OC)c4cc(F)ccc43)cc12 | 0.5 µg/mL (≈ 0.849 µM) | 0.5 µg/mL (≈ 0.849 µM) | 0.5 µg/mL (≈ 0.849 µM) | 4 µg/mL (≈ 6.8 µM) | 4 µg/mL (≈ 6.8 µM) | 0.5 µg/mL (≈ 0.849 µM) | 16 µg/mL (≈ 27.2 µM) | 4 µg/mL (≈ 6.8 µM) | 16 µg/mL (≈ 27.2 µM) | 8 µg/mL (≈ 13.6 µM) | > 1000 | < 0.016 µg/mL | 2 µg/mL (≈ 3.4 µM) | 2 µg/mL (≈ 3.4 µM) | 0.125 µg/mL (≈ 0.212 µM) | 0.25 µg/mL (≈ 0.425 µM) | 16 µg/mL (≈ 27.2 µM) | 
4 | CCOC(=O)c1c(-c2ccc(OC)cc2)oc2ccc(OCCCCCCN3C(=O)/C(=N\OC)c4ccccc43)cc12 | 0.125 µg/mL (≈ 0.219 µM) | 0.5 µg/mL (≈ 0.876 µM) | 0.125 µg/mL (≈ 0.219 µM) | 2 µg/mL (≈ 3.5 µM) | 2 µg/mL (≈ 3.5 µM) | 0.25 µg/mL (≈ 0.438 µM) | 16 µg/mL (≈ 28 µM) | 4 µg/mL (≈ 7.01 µM) | 8 µg/mL (≈ 14 µM) | 2 µg/mL (≈ 3.5 µM) | > 2000 | < 0.016 µg/mL | 4 µg/mL (≈ 7.01 µM) | 4 µg/mL (≈ 7.01 µM) | 0.125 µg/mL (≈ 0.219 µM) | 0.125 µg/mL (≈ 0.219 µM) | 32 µg/mL (≈ 56.1 µM) | 
5 | CCO/N=C1\C(=O)N(CCCCOc2ccc3oc(-c4ccc(OC)cc4)c(C(=O)OCC)c3c2)c2ccc(F)cc21 | 0.5 µg/mL (≈ 0.87 µM) | 1 µg/mL (≈ 1.74 µM) | 0.25 µg/mL (≈ 0.435 µM) | 4 µg/mL (≈ 6.96 µM) | 8 µg/mL (≈ 13.9 µM) | 0.5 µg/mL (≈ 0.87 µM) | 32 µg/mL (≈ 55.7 µM) | 8 µg/mL (≈ 13.9 µM) | 16 µg/mL (≈ 27.8 µM) | 8 µg/mL (≈ 13.9 µM) | 410 | 0.156 µg/mL (≈ 0.271 µM) | 4 µg/mL (≈ 6.96 µM) | 2 µg/mL (≈ 3.48 µM) | 0.25 µg/mL (≈ 0.435 µM) | 0.5 µg/mL (≈ 0.87 µM) |  | CC50 (Vero): 32 µg/mL (≈ 55.7 µM)
6 | CCOC(=O)c1c(-c2ccc(F)cc2)oc2ccc(OCCCCCCN3C(=O)/C(=N\OC)c4cc(F)ccc43)cc12 | 0.125 µg/mL (≈ 0.217 µM) | 0.25 µg/mL (≈ 0.434 µM) | 0.25 µg/mL (≈ 0.434 µM) | 1 µg/mL (≈ 1.73 µM) | 2 µg/mL (≈ 3.47 µM) | 0.25 µg/mL (≈ 0.434 µM) | 8 µg/mL (≈ 13.9 µM) | 4 µg/mL (≈ 6.94 µM) | 8 µg/mL (≈ 13.9 µM) | 2 µg/mL (≈ 3.47 µM) | 73 | 0.218 µg/mL (≈ 0.378 µM) | 1 µg/mL (≈ 1.73 µM) | 2 µg/mL (≈ 3.47 µM) | 0.125 µg/mL (≈ 0.217 µM) | 0.5 µg/mL (≈ 0.867 µM) | 16 µg/mL (≈ 27.7 µM) | 
7 | CNC(=O)c1c(-c2ccc(O)cc2)oc2ccc(O)c(CN3CCCCC3)c12 |  |  |  |  |  |  |  |  |  |  | > 64000 | < 0.016 µg/mL |  |  |  |  | > 1020 µg/mL | half-life [9]: 9.88 h; half-life [10]: > 1 h; Tmax [11]: 3.46 h; Cmax [12]: 5060 ng/mL; AUC(0-inf) [13]: 39300 ng·h/mL
8 | CCOC(=O)c1c(-c2ccc(OC)cc2)oc2ccc(OCCCCN3C(=O)/C(=N\OC)c4ccccc43)cc12 | 0.25 µg/mL (≈ 0.461 µM) | 0.125 µg/mL (≈ 0.23 µM) | 0.25 µg/mL (≈ 0.461 µM) | 1 µg/mL (≈ 1.84 µM) | 1 µg/mL (≈ 1.84 µM) | 0.06 µg/mL (≈ 0.111 µM) | 8 µg/mL (≈ 14.7 µM) | 1 µg/mL (≈ 1.84 µM) | 0.5 µg/mL (≈ 0.922 µM) | 4 µg/mL (≈ 7.37 µM) | > 2000 | < 0.016 µg/mL | 1 µg/mL (≈ 1.84 µM) | 0.25 µg/mL (≈ 0.461 µM) | 0.125 µg/mL (≈ 0.23 µM) | 0.5 µg/mL (≈ 0.922 µM) | 32 µg/mL (≈ 59 µM) | half-life [9]: 3.33 h; half-life [10]: 0.32 h; Tmax [11]: 1.65 h; Cmax [12]: 927 ng/mL; AUC(0-inf) [13]: 3020 ng·h/mL
9 | CCO/N=C1\C(=O)N(CCCCOc2ccc3oc(-c4ccc(OC)cc4)c(C(=O)OCC)c3c2)c2ccccc21 | 2 µg/mL (≈ 3.59 µM) | 0.5 µg/mL (≈ 0.898 µM) | 1 µg/mL (≈ 1.8 µM) | 1 µg/mL (≈ 1.8 µM) | 1 µg/mL (≈ 1.8 µM) | 2 µg/mL (≈ 3.59 µM) | 64 µg/mL (≈ 115 µM) | 0.5 µg/mL (≈ 0.898 µM) | 2 µg/mL (≈ 3.59 µM) | 2 µg/mL (≈ 3.59 µM) | > 4000 | < 0.016 µg/mL | 4 µg/mL (≈ 7.19 µM) | 2 µg/mL (≈ 3.59 µM) | 2 µg/mL (≈ 3.59 µM) | 1 µg/mL (≈ 1.8 µM) | 64 µg/mL (≈ 115 µM) | 
10 | O=C(O)c1cn(C2CC2)c2cc(N3CCNCC3)c(F)cc2c1=O [CIPROFLOXACIN] | 0.03 µg/mL (≈ 0.0905 µM) | 0.125 µg/mL (≈ 0.377 µM) |  | 0.25 µg/mL (≈ 0.754 µM) | 0.25 µg/mL (≈ 0.754 µM) | 0.06 µg/mL (≈ 0.181 µM) | 8 µg/mL (≈ 24.1 µM) | 0.5 µg/mL (≈ 1.51 µM) | 4 µg/mL (≈ 12.1 µM) | 0.25 µg/mL (≈ 0.754 µM) |  | 0.291 µg/mL (≈ 0.878 µM) | 0.5 µg/mL (≈ 1.51 µM) | 0.5 µg/mL (≈ 1.51 µM) | ≤ 0.03 µg/mL | 0.06 µg/mL (≈ 0.181 µM) | 512 µg/mL (≈ 1550 µM) | Tmax [11]: 1.8 h; Cmax [12]: 3130 ng/mL; AUC(0-inf) [13]: 17800 ng·h/mL
11 | CCOC(=O)c1c(-c2ccc(OC)cc2)oc2ccc(OCCCCCN3C(=O)/C(=N\OC)c4cc(F)ccc43)cc12 | 0.125 µg/mL (≈ 0.218 µM) | 0.5 µg/mL (≈ 0.87 µM) | 2 µg/mL (≈ 3.48 µM) | 2 µg/mL (≈ 3.48 µM) | 4 µg/mL (≈ 6.96 µM) | 0.125 µg/mL (≈ 0.218 µM) | 16 µg/mL (≈ 27.8 µM) | 1 µg/mL (≈ 1.74 µM) | 4 µg/mL (≈ 6.96 µM) | 1 µg/mL (≈ 1.74 µM) | > 2000 | < 0.016 µg/mL | 1 µg/mL (≈ 1.74 µM) | 0.5 µg/mL (≈ 0.87 µM) | 0.06 µg/mL (≈ 0.104 µM) | 0.125 µg/mL (≈ 0.218 µM) | 32 µg/mL (≈ 55.7 µM) | 
12 | CCOC(=O)c1c(-c2ccc(OC)cc2)oc2ccc(OCCCCCN3C(=O)/C(=N\O)c4ccccc43)cc12 | 0.5 µg/mL (≈ 0.922 µM) | 0.25 µg/mL (≈ 0.461 µM) | 1 µg/mL (≈ 1.84 µM) | 2 µg/mL (≈ 3.69 µM) | 2 µg/mL (≈ 3.69 µM) | 0.5 µg/mL (≈ 0.922 µM) | 8 µg/mL (≈ 14.7 µM) | 2 µg/mL (≈ 3.69 µM) | 4 µg/mL (≈ 7.37 µM) | 4 µg/mL (≈ 7.37 µM) | 1030 | 0.062 µg/mL (≈ 0.114 µM) | 2 µg/mL (≈ 3.69 µM) | 1 µg/mL (≈ 1.84 µM) | 0.25 µg/mL (≈ 0.461 µM) | 0.25 µg/mL (≈ 0.461 µM) | 64 µg/mL (≈ 118 µM) | 
